These results are taken from US5004747A, “Isoquinolinones” (May & Baker Limited, priority 1988, dated 1991).

SMILES strings stand for the structures.

This experiment has as its target T1, rat hepatic microsomal HMG CoA reductase (Rattus norvegicus, UniProt P51639).
T1 construct: rat hepatic microsomal HMG CoA reductase; from tissue; host or cells: rat liver microsomes
T1 sequence (P51639 1-887): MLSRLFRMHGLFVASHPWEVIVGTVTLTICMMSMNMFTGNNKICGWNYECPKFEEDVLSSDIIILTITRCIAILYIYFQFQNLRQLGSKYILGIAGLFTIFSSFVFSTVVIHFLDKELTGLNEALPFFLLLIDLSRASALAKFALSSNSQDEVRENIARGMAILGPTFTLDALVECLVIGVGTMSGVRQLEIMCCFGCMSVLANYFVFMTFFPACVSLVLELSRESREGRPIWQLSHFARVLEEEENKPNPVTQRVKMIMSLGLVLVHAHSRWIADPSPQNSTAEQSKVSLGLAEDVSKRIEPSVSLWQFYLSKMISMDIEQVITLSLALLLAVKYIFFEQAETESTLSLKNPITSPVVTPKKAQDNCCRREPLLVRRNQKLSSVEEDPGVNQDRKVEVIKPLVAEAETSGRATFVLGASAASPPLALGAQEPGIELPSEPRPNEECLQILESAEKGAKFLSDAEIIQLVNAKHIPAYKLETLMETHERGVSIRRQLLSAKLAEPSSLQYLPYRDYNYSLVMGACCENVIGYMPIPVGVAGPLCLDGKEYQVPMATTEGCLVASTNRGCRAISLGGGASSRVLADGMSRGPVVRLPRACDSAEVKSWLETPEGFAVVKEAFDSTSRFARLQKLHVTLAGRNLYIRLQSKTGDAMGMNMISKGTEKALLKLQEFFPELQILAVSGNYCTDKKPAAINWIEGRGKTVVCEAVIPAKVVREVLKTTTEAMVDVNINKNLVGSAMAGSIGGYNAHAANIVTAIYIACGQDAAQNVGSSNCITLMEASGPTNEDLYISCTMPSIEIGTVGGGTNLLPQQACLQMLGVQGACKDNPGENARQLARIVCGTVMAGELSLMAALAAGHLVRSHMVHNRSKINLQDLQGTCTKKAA
In words: inhibition of rat hepatic microsomal HMG CoA reductase activity in vitro (Table I). It is filed as biochemical. The conditions noted are these: for inhibition at 0.082 µg/mL: 0.082 micrograms/ml; for inhibition at 0.25 µg/mL: 0.25 micrograms/ml; for inhibition at 0.74 µg/mL: 0.74 micrograms/ml; for inhibition at 2.22 µg/mL: 2.22 micrograms/ml; for inhibition at 6.66 µg/mL: 6.66 micrograms/ml; for inhibition at 20 µg/mL: 20.0 micrograms/ml; for inhibition at 0.0274 µg/mL: 0.0274 micrograms/ml; for inhibition at 2 µg/mL: 2.0 micrograms/ml; for inhibition at 0.24 µg/mL: 0.24 micrograms/ml. The source says: In the table the concentrations of the test compounds are expressed in micrograms/ml.

In turn, `CC(C)c1c(/C=C/[C@@H]2C[C@@H](O)CC(O)O2)n(-c2ccc(F)cc2)c(=O)c2ccccc12` (mixture of isomers) [Compound M, (2RS,4R,6S)-(E)-2,4-dihydroxy-6-[2-(2-(4-fluorophenyl)-4-isopropyl-1-oxo-1,2-dihydroisoquinolin-3-yl)ethen-1-yl]-3,4,5,6-tetrahydro-2H-pyran] displayed an inhibition at 0.082 µg/mL of 27%, an inhibition at 0.25 µg/mL of 18%, an inhibition at 0.74 µg/mL of 31% and an inhibition at 2.22 µg/mL of 44%. The same molecule returned an inhibition at 6.66 µg/mL of 56% and an inhibition at 20 µg/mL of 72%.

Regarding `CC(C)c1c(/C=C/[C@@H]2C[C@@H](O)CC(=O)O2)n(CC2CCCCC2)c(=O)c2ccccc12` [AB, (4R,6S)-(E)-6-(2-(2-cyclohexylmethyl-4-isopropyl-1-oxo-1,2-dihydroisoquinolin-3-yl)ethen-1-yl)-4-hydroxy-3,4,5,6-tetrahydro-2H-pyran-2-one], the inhibition at 0.74 µg/mL turned out to be 20%, 2.22 µg/mL produced 41% inhibition and the inhibition at 6.66 µg/mL was 66%.

On to `CC(C)n1c(/C=C/[C@@H](O)C[C@@H](O)CC(=O)O)c(-c2ccc(F)cc2)c2ccccc2c1=O` [AF, sodium (3R,5S)-(E)-3,5-dihydroxy-7-(4-(4-fluorophenyl)-2-isopropyl-1-oxo-1,2-dihydroisoquinolin-3-yl)hept-6-enoate], for which the inhibition at 0.0274 µg/mL was determined as 15%, 0.082 µg/mL produced 38% inhibition, the inhibition at 0.25 µg/mL came to 65% and the inhibition at 0.74 µg/mL came out at 83%. The molecule also came in with an inhibition at 2.22 µg/mL of 93% and an inhibition at 6.66 µg/mL of 95%.

In the case of `CC(C)c1c(/C=C/[C@@H](O)C[C@@H](O)CC(=O)O)n(-c2ccc(F)cc2)c(=O)c2ccccc12` [AG, sodium (3R,5S)-(E)-3,5-dihydroxy-7-(2-(4-fluorophenyl)-4-isopropyl-1-oxo-1,2-dihydroisoquinolin-3-yl)hept-6-enoate], the inhibition at 0.0274 µg/mL amounted to 15%, the inhibition at 0.082 µg/mL turned out to be 57%, the inhibition at 0.25 µg/mL came to 74% and at 0.74 µg/mL the inhibition was 89%. The molecule also displayed an inhibition at 2.22 µg/mL of 96%.

As for `CC(C)c1c(CC[C@@H]2C[C@@H](O)CC(=O)O2)n(-c2ccc(F)cc2)c(=O)c2ccccc12` [AH, (4R,6R)-6-[2-{2-(4-fluorophenyl)-4-isopropyl-1-oxo-1,2-dihydroisoquinolin-3-yl}ethyl]-4-hydroxy-3,4,5,6-tetrahydro-2H-pyran-2-one], the inhibition at 0.082 µg/mL was 33%, testing at 0.25 µg/mL gave an inhibition of 31%, the inhibition at 0.74 µg/mL turned out to be 47% and testing at 2.22 µg/mL gave an inhibition of 61%. This molecule gave an inhibition at 6.66 µg/mL of 79% and an inhibition at 20 µg/mL of 91%.

The molecule `CC(C)n1c(CC[C@@H]2C[C@@H](O)CC(=O)O2)c(-c2ccc(F)cc2)c2ccccc2c1=O` [AI, (4R,6R)-6-(2-(4-(4-fluorophenyl)-2-isopropyl-1-oxo-1,2-dihydroisoquinolin-3-yl)ethyl)-4-hydroxy-3,4,5,6-tetrahydro-2H-pyran-2-one] displayed an inhibition at 0.082 µg/mL of 16%, an inhibition at 0.25 µg/mL of 38%, an inhibition at 0.74 µg/mL of 62% and an inhibition at 2.22 µg/mL of 81%. In addition, at 6.66 µg/mL the inhibition was 92%.

In turn, `Cn1c(/C=C/C(O)CC(O)CC(=O)O)c(-c2ccccc2)c2ccccc2c1=O` (centres unmarked) [B, (E)-3,5-dihydroxy-7-(2-methyl-1-oxo-4-phenyl-1,2-dihydroisoquinolin-3-yl)hept-6-enoic acid] returned an inhibition at 2 µg/mL of 5% and an inhibition at 20 µg/mL of 65%.

As to `Cn1c(/C=C/C(O)CC(O)CC(=O)O)c(-c2ccccc2)c2ccccc2c1=O` (centres unmarked) [BA, sodium (E)-3,5-dihydroxy-7-(2-methyl-1-oxo-4-phenyl-1,2-dihydroisoquinolin-3-yl)hept-6-enoate], at 2 µg/mL the inhibition was 0% and testing at 20 µg/mL gave an inhibition of 61%.

Take `CCOC(=O)CC(O)CC(O)/C=C/c1c(-c2ccc(F)cc2)c2ccccc2c(=O)n1C(C)C` (centres unmarked) [Compound D, ethyl (E)-3,5-dihydroxy-7-[4-(4-fluorophenyl)-2-isopropyl-1-oxo-1,2-dihydroisoquinolin-3-yl]hept-6-enoate]: the inhibition at 0.24 µg/mL is 11%, the inhibition at 0.74 µg/mL was found to be 35%, 2.22 µg/mL produced 62% inhibition and 6.66 µg/mL produced 85% inhibition. In addition, the inhibition at 20 µg/mL came to 94%.

Regarding `CC(C)n1c(/C=C/C(O)CC(O)CC(=O)O)c(-c2ccc(F)cc2)c2ccccc2c1=O` (centres unmarked) [Compound E, (E)-3,5-dihydroxy-7-[4-(4-fluorophenyl)-2-isopropyl-1-oxo-1,2-dihydroisoquinolin-3-yl]hept-6-enoic acid], 0.24 µg/mL produced 15% inhibition, testing at 0.74 µg/mL gave an inhibition of 28%, 2.22 µg/mL produced 61% inhibition and the inhibition at 6.66 µg/mL came to 82%. Also, 20 µg/mL produced 94% inhibition.

In the case of `CC(C)n1c(/C=C/C(O)CC(O)CC(=O)O)c(-c2ccc(F)cc2)c2ccccc2c1=O` (centres unmarked) [Compound F, sodium (E)-3,5-dihydroxy-7-[4-(4-fluorophenyl)-2-isopropyl-1-oxo-1,2-dihydroisoquinolin-3-yl]hept-6-enoate], at 0.24 µg/mL the inhibition was 37%, the inhibition at 0.74 µg/mL stood at 59%, the inhibition at 2.22 µg/mL is 80% and 6.66 µg/mL produced 91% inhibition. The molecule also displayed an inhibition at 20 µg/mL of 97%.

On to `CC(C)n1c(/C=C/C2CC(O)CC(=O)O2)c(-c2ccc(F)cc2)c2ccccc2c1=O` (centres unmarked) [Compound G, (E)-4-hydroxy-6-[2-{4-(4-fluorophenyl)-2-isopropyl-1-oxo-1,2-dihydroisoquinolin-3-yl}ethenyl]-3,4,5,6-tetrahydro-2H-pyran-2-one], for which the inhibition at 0.082 µg/mL amounted to 14%, at 0.25 µg/mL the inhibition was 29%, testing at 0.74 µg/mL gave an inhibition of 58% and the inhibition at 2.22 µg/mL was found to be 81%. The same molecule gave an inhibition at 6.66 µg/mL of 93% and an inhibition at 20 µg/mL of 97%.

For the molecule `CC(C)c1c(/C=C/[C@@H]2C[C@@H](O)CC(=O)O2)n(-c2ccc(F)cc2)c(=O)c2ccccc12` [Compound I, (4R,6S)-(E)-4-hydroxy-6-[2-{2-(4-fluorophenyl)-4-isopropyl-1-oxo-1,2-dihydroisoquinolin-3-yl}ethen-1-yl]-3,4,5,6-tetrahydro-2H-pyran-2-one], at 0.0274 µg/mL the inhibition was 25%, the inhibition at 0.082 µg/mL came to 48%, the inhibition at 0.25 µg/mL stood at 72% and 0.74 µg/mL produced 88% inhibition. Further, 2.22 µg/mL produced 96% inhibition.

`COC(=O)C[C@H](O)C[C@H](O)/C=C/c1c(-c2ccc(F)cc2)c2ccccc2c(=O)n1C(C)C` [Compound J, methyl (3R,5S)-(E)-3,5-dihydroxy-7-[4-(4-fluorophenyl)-2-isopropyl-1-oxo-1,2-dihydroisoquinolin-3-yl]hept-6-enoate]: the inhibition at 0.0274 µg/mL is 13%, the inhibition at 0.082 µg/mL stood at 28%, the inhibition at 0.25 µg/mL was determined as 55% and the inhibition at 0.74 µg/mL came to 79%. The same molecule returned an inhibition at 2.22 µg/mL of 92%.

`CC(C)n1c(/C=C/[C@@H]2C[C@@H](O)CC(=O)O2)c(-c2ccc(F)cc2)c2ccccc2c1=O` [H, (4R,6S)-(E)-4-hydroxy-6-[2-{4-(4-fluorophenyl)-2-isopropyl-1-oxo-1,2-dihydroisoquinolin-3-yl}-ethen-1-yl]-3,4,5,6-tetrahydro-2H-pyran-2-one] had an inhibition at 0.082 µg/mL of 49%, an inhibition at 0.25 µg/mL of 66%, an inhibition at 0.74 µg/mL of 85% and an inhibition at 2.22 µg/mL of 95%. The same molecule had an inhibition at 6.66 µg/mL of 99% and an inhibition at 20 µg/mL of 100%.

`COc1ccc(-n2c(/C=C/[C@@H]3C[C@@H](O)CC(=O)O3)c(C(C)C)c3ccccc3c2=O)cc1` [N, (4R,6S)-(E)-4-hydroxy-6-(2-(2-(4-methoxyphenyl)-4-isopropyl-1-oxo-1,2-dihydroisoquinolin-3-yl)ethen-1-yl)-3,4,5,6-tetrahydro-2H-pyran-2-one] came in with an inhibition at 0.25 µg/mL of 13%, an inhibition at 0.74 µg/mL of 34%, an inhibition at 2.22 µg/mL of 59% and an inhibition at 6.66 µg/mL of 80%. This molecule also displayed an inhibition at 0.0824 µg/mL (0.0824 micrograms/ml) of 16%.
